From patent publication US20160158200A1, “Combinations of Hepatitis C Virus Inhibitors” (priority 2013, published 2016)

Test system: HCV genotype-1a variant with glutamine 30 changed to glutamate in the NS5A protein
Format: cell-based
Conditions: test compound titrated with BMS-790052 fixed at 200 nM; genotype 1a Q30E replicon
Outline: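 Synergy was assessed by combining several fixed amounts of an NS5A-targeting compound with a titration of the second compound of interest.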

SMILES | Fold-Synergistic 1a (Q30E) [fold]
CC(C)(C)[C@H](NC(=O)C(=O)c1ccco1)c1nc(-c2ccc(-c3ccc(-c4c[nH]c([C@@H](NC(=O)C(=O)c5ccco5)C(C)(C)C)n4)cc3)cc2)c[nH]1 [Compound W-20] | >100
O=C(OC1CCCC1)N1CCC[C@H]1c1ncc(-c2ccc(-c3ccc(-c4cnc([C@@H]5CCCN5C(=O)OC5CCCC5)[nH]4)cc3)cc2)[nH]1 [Compound S-225] | >10
CC(C)(C)OC(=O)N1CC(F)(F)C[C@H]1C(=O)N[C@H](c1nc(-c2ccc(-c3ccc(-c4c[nH]c([C@@H](NC(=O)[C@@H]5CC(F)(F)CN5C(=O)OC(C)(C)C)C(C)(C)C)n4)cc3)cc2)c[nH]1)C(C)(C)C [Compound W-88] | >100
CC(C)[C@H](NC(=O)COc1ccccc1)c1ncc(-c2ccc(-c3ccc(-c4cnc([C@@H](NC(=O)COc5ccccc5)C(C)C)[nH]4)cc3)cc2)[nH]1 [Compound S-35] | >100
CC1(C(=O)N[C@H](c2nc(-c3ccc(-c4ccc(-c5c[nH]c([C@@H](NC(=O)C6(C)CCCCC6O)C(C)(C)C)n5)cc4)cc3)c[nH]2)C(C)(C)C)CCCCC1O (single isomer, unassigned) [Compound Y-94] | >100
CN(C(=O)OC(C)(C)C)C(C)(C)C(=O)N[C@H](c1nc(-c2ccc(-c3ccc(-c4c[nH]c([C@@H](NC(=O)C(C)(C)N(C)C(=O)OC(C)(C)C)C(C)(C)C)n4)cc3)cc2)c[nH]1)C(C)(C)C.O=C(O)C(F)(F)F.O=C(O)C(F)(F)F [Compound L-8] | >100
CC(C)(C)[C@H](NC(=O)C1(CO)COC1)c1nc(-c2ccc(-c3ccc(-c4c[nH]c([C@@H](NC(=O)C5(CO)COC5)C(C)(C)C)n4)cc3)cc2)c[nH]1 [Compound L-125] | >100
CC1(C)C2CCC(C(=O)N[C@H](c3nc(-c4ccc(-c5ccc(-c6c[nH]c([C@@H](NC(=O)C78CCC(C7)C(C)(C)C8O)C7(C)CC7)n6)cc5)cc4)c[nH]3)C3(C)CC3)(C2)C1O (single isomer, unassigned) [Compound Y-118] | >100
CC(C)(C)[C@H](NC(=O)[C@H]1C[C@@H]2[C@H](C1)C2(F)F)c1nc(-c2ccc(-c3ccc(-c4c[nH]c([C@@H](NC(=O)[C@H]5C[C@@H]6[C@H](C5)C6(F)F)C(C)(C)C)n4)cc3)cc2)c[nH]1 [Compound Y-10] | >100
CC1(C(NC(=O)C(C)(C)C(O)C2CC(F)(F)C2)c2nc(-c3ccc(-c4ccc(-c5c[nH]c(C(NC(=O)C(C)(C)C(O)C6CC(F)(F)C6)C6(C)CC6)n5)cc4)cc3)c[nH]2)CC1 (mixture of isomers) [Compound N-157] | >100
COCC(NC(=O)C(=O)N1CCC(F)(F)CC1)c1nc(-c2ccc(-c3ccc(-c4c[nH]c(C(COC)NC(=O)C(=O)N5CCC(F)(F)CC5)n4)cc3)cc2)c[nH]1 [Compound L-103] | >10
CC(C)[C@H](NC(=O)Cc1noc2ccccc12)c1ncc(-c2ccc(-c3ccc(-c4cnc([C@@H](NC(=O)Cc5noc6ccccc56)C(C)C)[nH]4)cc3)cc2)[nH]1 [Compound P-77] | >100
CC(C)(C)OC(=O)N1CC2CC2C1C(=O)NC(c1nc(-c2ccc(-c3ccc(-c4c[nH]c(C(NC(=O)C5C6CC6CN5C(=O)OC(C)(C)C)C(C)(C)C)n4)cc3)cc2)c[nH]1)C(C)(C)C (stereo not shown) [Compound W-79] | >100
CC(C)(C)[C@H](NC(=O)C1(CF)CCC(F)(F)CC1)c1nc(-c2ccc(-c3ccc(-c4c[nH]c([C@@H](NC(=O)C5(CF)CCC(F)(F)CC5)C(C)(C)C)n4)cc3)cc2)c[nH]1 [Compound P-38] | >100
COc1ccccc1C1OC(=O)CC1C(=O)NC(c1nc(-c2ccc(-c3ccc(-c4c[nH]c(C(NC(=O)C5CC(=O)OC5c5ccccc5OC)C(C)(C)C)n4)cc3)cc2)c[nH]1)C(C)(C)C (mixture of isomers) [Compound S-263] | >10
CC(C)CC(=O)N[C@H](c1ncc(-c2ccc(C#Cc3ccc(-c4cnc([C@@H](NC(=O)CC(C)C)C(C)(C)C)[nH]4)cc3)cc2)[nH]1)C(C)(C)C [Compound N-3] | >10
CC(C)[C@H](NC(=O)c1cccc(C(F)(F)F)c1)c1ncc(-c2ccc(-c3ccc(-c4cnc([C@@H](NC(=O)c5cccc(C(F)(F)F)c5)C(C)C)[nH]4)cc3)cc2)[nH]1 [Compound S-79] | >100
CCCCOC(=O)N[C@H](c1ncc(-c2ccc(-c3ccc(-c4cnc([C@@H](NC(=O)OCCCC)C(C)C)[nH]4)cc3)cc2)[nH]1)C(C)C [Compound S-209] | >100
CC(C)[C@H](NC(=O)c1cc(Cl)cs1)c1ncc(-c2ccc(-c3ccc(-c4cnc([C@@H](NC(=O)c5cc(Cl)cs5)C(C)C)[nH]4)cc3)cc2)[nH]1 [Compound P-90] | >100
CO[C@H](C)[C@H](NC(=O)C1CCC(F)(F)CC1)c1nc(-c2ccc(-c3ccc(-c4c[nH]c([C@@H](NC(=O)C5CCC(F)(F)CC5)[C@@H](C)OC)n4)cc3)cc2)c[nH]1 [Compound L-98] | <10

SMILES | Fold-Synergistic 1a (Q30E) [fold]
CC(=O)N1C[C@H](F)C[C@H]1C(=O)N[C@H](c1nc(-c2ccc(-c3ccc(-c4c[nH]c([C@@H](NC(=O)[C@@H]5C[C@@H](F)CN5C(C)=O)C(C)(C)C)n4)cc3)cc2)c[nH]1)C(C)(C)C [Compound W-102] | >10
CC(C)[C@H](NC(=O)c1cc(Cl)ccc1Cl)c1ncc(-c2ccc(-c3ccc(-c4cnc([C@@H](NC(=O)c5cc(Cl)ccc5Cl)C(C)C)[nH]4)cc3)cc2)[nH]1 [Compound S-67] | >100
CC(C)[C@H](NC(=O)c1ccc(Cl)cc1F)c1ncc(-c2ccc(-c3ccc(-c4cnc([C@@H](NC(=O)c5ccc(Cl)cc5F)C(C)C)[nH]4)cc3)cc2)[nH]1 [Compound S-93] | >100
CC(C)(F)C(NC(=O)C1CCC(F)(F)CC1)c1nc(-c2ccc(-c3ccc(-c4c[nH]c(C(NC(=O)C5CCC(F)(F)CC5)C(C)(C)F)n4)cc3)cc2)c[nH]1 (single isomer, unassigned) [Compound N-106A] | >100
CC(C)(C)[C@H](NC(=O)C1(CO)CCCO1)c1nc(-c2ccc(-c3ccc(-c4c[nH]c([C@@H](NC(=O)C5(CO)CCCO5)C(C)(C)C)n4)cc3)cc2)c[nH]1 (single isomer, unassigned) [Compound Y-112] | >100
CC(C)(C)C(=O)N[C@H](c1nc(-c2ccc(-c3ccc(-c4c[nH]c([C@@H](NC(=O)C(C)(C)C)C(C)(C)C)n4)cc3)cc2)c[nH]1)C(C)(C)C [Compound N-46] | >100
CCN(CC(F)(F)F)C(=O)C(=O)NC(c1nc(-c2ccc(-c3ccc(-c4c[nH]c(C(NC(=O)C(=O)N(CC)CC(F)(F)F)C5CC5)n4)cc3)cc2)c[nH]1)C1CC1 [Compound L-35] | >100
CC(C)[C@H](NC(=O)c1cc2ccccc2s1)c1ncc(-c2ccc(-c3ccc(-c4cnc([C@@H](NC(=O)c5cc6ccccc6s5)C(C)C)[nH]4)cc3)cc2)[nH]1 [Compound P-98] | >100
CC(C)[C@H](NC(=O)C(=O)C1(C)CCCC1)c1ncc(-c2ccc(-c3ccc(-c4cnc([C@@H](NC(=O)C(=O)C5(C)CCCC5)C(C)C)[nH]4)cc3)cc2)[nH]1 [Compound P-114] | >100
CC1(OC(=O)N2CC(F)CC2C(=O)NC(c2nc(-c3ccc(-c4ccc(-c5c[nH]c(C(NC(=O)C6CC(F)CN6C(=O)OC6(C)CC6)C(C)(C)C)n5)cc4)cc3)c[nH]2)C(C)(C)C)CC1 (stereo not shown) [Compound W-119] | >100
CC(C)[C@H](NC(=O)CC(c1ccccc1)c1ccccc1)c1ncc(-c2ccc(-c3ccc(-c4cnc([C@@H](NC(=O)CC(c5ccccc5)c5ccccc5)C(C)C)[nH]4)cc3)cc2)[nH]1 [Compound S-30] | >100
CC(C)(C(=O)N[C@H](c1nc(-c2ccc(-c3ccc(-c4c[nH]c([C@@H](NC(=O)C(C)(C)C(O)c5ccccc5)C(C)(C)C)n4)cc3)cc2)c[nH]1)C(C)(C)C)C(O)c1ccccc1 (single isomer, unassigned) [Compound N-127A] | >100
COCC1(C(=O)N[C@H](c2nc(-c3ccc(-c4ccc(-c5c[nH]c([C@@H](NC(=O)C6(COC)CCC(F)(F)CC6)C(C)(C)C)n5)cc4)cc3)c[nH]2)C(C)(C)C)CCC(F)(F)CC1 [Compound P-41] | >100
CC(C)OC(C)(C)C(=O)N[C@H](c1ncc(-c2ccc(-c3ccc(-c4cnc([C@@H](NC(=O)C(C)(C)OC(C)C)C(C)C)[nH]4)cc3)cc2)[nH]1)C(C)C [Compound Y-29] | >100
CC(C)[C@H](NC(=O)c1ccc2ccccc2c1)c1ncc(-c2ccc(-c3ccc(-c4cnc([C@@H](NC(=O)c5ccc6ccccc6c5)C(C)C)[nH]4)cc3)cc2)[nH]1 [Compound S-10] | >100
CC(C)(C)C(NC(=O)C1CC12CCC(F)(F)CC2)c1nc(-c2ccc(-c3ccc(-c4c[nH]c(C(NC(=O)C5CC56CCC(F)(F)CC6)C(C)(C)C)n4)cc3)cc2)c[nH]1 (mixture of isomers) [Compound Y-70] | >100
CC(C)C(=O)NC1(C(=O)N[C@H](c2nc(-c3ccc(-c4ccc(-c5c[nH]c([C@@H](NC(=O)C6(NC(=O)C(C)C)CCCCC6)C(C)(C)C)n5)cc4)cc3)c[nH]2)C(C)(C)C)CCCCC1 [Compound W-266] | >100
COC(=O)C1(C(=O)N[C@H](c2nc(-c3ccc(-c4ccc(-c5c[nH]c([C@@H](NC(=O)C6(C(=O)OC)CC6)C(C)(C)C)n5)cc4)cc3)c[nH]2)C(C)(C)C)CC1 [Compound W-124] | >100
Cc1cc(C(=O)N[C@H](c2ncc(-c3ccc(-c4ccc(-c5cnc([C@@H](NC(=O)c6cc(C)oc6C)C(C)C)[nH]5)cc4)cc3)[nH]2)C(C)C)c(C)o1 [Compound S-98] | >100
CC(C)(C)[C@H](NC(=O)C1CCCCC1CO)c1nc(-c2ccc(-c3ccc(-c4c[nH]c([C@@H](NC(=O)C5CCCCC5CO)C(C)(C)C)n4)cc3)cc2)c[nH]1 (single isomer, unassigned) [Compound L-141c] | >100
